pEC50: −log10 of the molar value. “And” between values parts separate entries of the source, which are not always exact repeats. Equal entries are not always repeated. Starred links: 1 amine or outer side, 2 acyl side, 3 side chain; linkers in the order of their positions; H or OH if unused. Positions of bridges follow the written chain, without caps; N, C: chain ends. Non-standard residues stand in square brackets, D forms with d. Residues, ends and D or L forms follow the SMILES beside them. X1 = CC(=O)NC(C(=O)OC(C(C)C)C(N[*:1])C(=O)[*:2])C(O)C(C)C; PhLac = O=C(O)[CH](O)Cc1ccccc1; NMeT = CN[CH](C(=O)O)[CH](C)O; NMeA = CN[CH](C)C(=O)O; NMeDha = C=C(NC)C(=O)O
What was measured:
mGlu1 P58H/N264H mutant = molecular target: T1, mGlu1 P58H/N264H mutant (Rattus norvegicus, UniProt P23385, N264H/P58H); experiment: Fura-2 Ca2+ imaging in HEK293 cells expressing mGlu1 P58H/N264H; assay type: cell-based; conditions: for Receptor activation ([Ca2+]i change, Δratio): 10 μM metal ion or metal complex; for Δratio of 3 µM Pd(bpy)-induced response, ave / Δratio of 10 µM glutamate-induced response, ave: n = 20
T1 construct: expressed in transfected cells; host or cells: HEK293
T1 sequence (P23385 19-1199 P58H/N264H): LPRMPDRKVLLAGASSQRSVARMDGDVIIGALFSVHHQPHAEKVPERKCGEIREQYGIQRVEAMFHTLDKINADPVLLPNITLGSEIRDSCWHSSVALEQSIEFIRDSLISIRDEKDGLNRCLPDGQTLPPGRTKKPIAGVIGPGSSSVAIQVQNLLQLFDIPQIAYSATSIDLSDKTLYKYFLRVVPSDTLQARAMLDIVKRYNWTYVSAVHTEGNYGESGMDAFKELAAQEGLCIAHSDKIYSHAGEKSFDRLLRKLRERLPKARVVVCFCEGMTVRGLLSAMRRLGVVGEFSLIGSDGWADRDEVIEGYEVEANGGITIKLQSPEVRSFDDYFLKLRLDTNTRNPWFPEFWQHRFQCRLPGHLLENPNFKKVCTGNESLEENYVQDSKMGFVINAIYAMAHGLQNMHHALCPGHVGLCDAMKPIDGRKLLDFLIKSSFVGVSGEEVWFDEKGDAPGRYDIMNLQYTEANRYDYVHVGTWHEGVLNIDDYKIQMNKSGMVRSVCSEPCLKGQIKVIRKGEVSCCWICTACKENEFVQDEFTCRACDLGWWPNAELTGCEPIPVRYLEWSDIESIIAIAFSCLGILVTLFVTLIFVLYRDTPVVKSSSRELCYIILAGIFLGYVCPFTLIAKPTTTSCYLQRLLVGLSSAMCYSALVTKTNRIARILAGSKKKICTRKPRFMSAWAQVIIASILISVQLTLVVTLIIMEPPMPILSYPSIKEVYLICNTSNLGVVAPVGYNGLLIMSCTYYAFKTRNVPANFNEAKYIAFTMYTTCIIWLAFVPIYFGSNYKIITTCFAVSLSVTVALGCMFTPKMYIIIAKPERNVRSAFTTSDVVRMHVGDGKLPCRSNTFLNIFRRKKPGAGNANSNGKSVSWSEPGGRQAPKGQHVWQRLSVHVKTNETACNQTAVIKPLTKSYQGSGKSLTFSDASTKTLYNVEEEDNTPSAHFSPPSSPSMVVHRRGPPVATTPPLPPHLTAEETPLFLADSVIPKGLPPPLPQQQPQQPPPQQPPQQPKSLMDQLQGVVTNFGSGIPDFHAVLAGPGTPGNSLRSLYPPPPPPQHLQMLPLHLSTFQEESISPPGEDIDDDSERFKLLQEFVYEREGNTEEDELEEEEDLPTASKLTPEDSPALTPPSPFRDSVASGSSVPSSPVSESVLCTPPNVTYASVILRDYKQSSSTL

mGlu1 A59H/N264H mutant = molecular target: T2, mGlu1 A59H/N264H mutant (Rattus norvegicus, UniProt P23385, A59H/N264H); experiment: Fura-2 Ca2+ imaging in HEK293 cells expressing mGlu1 A59H/N264H; assay type: cell-based; conditions: 10 μM metal ion or metal complex
T2 construct: expressed in transfected cells; host or cells: HEK293
T2 sequence (P23385 19-1199 A59H/N264H): as the sequence (P23385 19-1199 P58H/N264H) above, with H40P, A41H counted along it

mGlu1 K61H/N264H mutant = molecular target: T3, mGlu1 K61H/N264H mutant (Rattus norvegicus, UniProt P23385, K61H/N264H); experiment: Fura-2 Ca2+ imaging in HEK293 cells expressing mGlu1 K61H/N264H; assay type: cell-based; conditions: 10 μM metal ion or metal complex
T3 construct: expressed in transfected cells; host or cells: HEK293
T3 sequence (P23385 19-1199 K61H/N264H): as the sequence (P23385 19-1199 P58H/N264H) above, with H40P, K43H counted along it

mGlu1 P57H/N264H mutant = molecular target: T4, mGlu1 P57H/N264H mutant (Rattus norvegicus, UniProt P23385, N264H/P57H); experiment: Fura-2 Ca2+ imaging in HEK293 cells expressing mGlu1 P57H/N264H; assay type: cell-based; conditions: 10 μM metal ion or metal complex
T4 construct: expressed in transfected cells; host or cells: HEK293
T4 sequence (P23385 19-1199 P57H/N264H): as the sequence (P23385 19-1199 P58H/N264H) above, with P39H, H40P counted along it

mGlu1 E60H/N264H mutant = molecular target: T5, mGlu1 E60H/N264H mutant (Rattus norvegicus, UniProt P23385, E60H/N264H); experiment: Fura-2 Ca2+ imaging in HEK293 cells expressing mGlu1 E60H/N264H; assay type: cell-based; conditions: 10 μM metal ion or metal complex
T5 construct: expressed in transfected cells; host or cells: HEK293
T5 sequence (P23385 19-1199 E60H/N264H): as the sequence (P23385 19-1199 P58H/N264H) above, with H40P, E42H counted along it

mGlu1(N264H) mutant = molecular target: T6, mGlu1(N264H) mutant (Rattus norvegicus, UniProt P23385, N264H); experiment: Fura-2 Ca2+ imaging in HEK293 cells expressing mGlu1(N264H); assay type: cell-based; conditions: for Effect of pre-treated inhibitor on 10 µM Pd(bpy)-induced Ca2+ responses: 10 µM LY367385, 1 µM FITM, 10 µM YM254890 or 1 µM U73122; for Receptor activation (Ca2+ response, Δratio): 3 μM Pd(bpy) derivative; for Ca2+ response to Pd complex, individual cells #1-#20 (Fig.4e): single-cell values
T6 construct: expressed in transfected cells; host or cells: HEK293
T6 sequence (P23385 19-1199 N264H): as the sequence (P23385 19-1199 P58H/N264H) above, with H40P counted along it

primary cortical neurons = experiment: Fura-2 Ca2+ imaging (abnormal Ca2+ response) in cultured cortical neurons; conditions: co-treated 30 µM LY367385, 1 µM FITM or 10 µM U73122

Effect of pre-treated inhibitor on 10 µM Pd(bpy)-induced Ca2+ responses (mGlu1(N264H) mutant)	Compound	Receptor activation ([Ca2+]i change, Δratio) (mGlu1 P58H/N264H mutant)	Receptor activation ([Ca2+]i change, Δratio) (mGlu1 A59H/N264H mutant)	Receptor activation ([Ca2+]i change, Δratio) (mGlu1 K61H/N264H mutant)	Receptor activation ([Ca2+]i change, Δratio) (mGlu1 P57H/N264H mutant)	Receptor activation ([Ca2+]i change, Δratio) (mGlu1 E60H/N264H mutant)	Receptor activation (Ca2+ response, Δratio) (mGlu1(N264H) mutant)	Ca2+ response to Pd complex, individual cells #1-#20 (Fig.4e) (mGlu1(N264H) mutant)	other results
–	[Cd+2] [Cd^2+, reference compound]	failed to activate	failed to activate	failed to activate	failed to activate	failed to activate	–	–	–
–	[Cu+2] [Cu^2+, reference compound]	failed to activate	failed to activate	failed to activate	failed to activate	failed to activate	–	–	–
inhibited	Cc1cc(C(=O)O)ccc1[C@H](N)C(=O)O [LY367385, reference compound]	–	–	–	–	–	–	–	Effect on Pd(bpy)-induced Ca2+ responses (mGlu1 P58H/N264H mutant; 10 μM LY367385, 3 µM Pd(bpy)): inhibited; Δratio of 3 µM Pd(bpy)-induced response, ave (mGlu1 P58H/N264H mutant; [LY367385] 0.1 µM): 0.1859; Δratio of 10 µM glutamate-induced response, ave (mGlu1 P58H/N264H mutant; [LY367385] 0.1 µM): 0.243; Δratio of 3 µM Pd(bpy)-induced response, ave (mGlu1 P58H/N264H mutant; [LY367385] 0.3 µM): 0.1915; Δratio of 10 µM glutamate-induced response, ave (mGlu1 P58H/N264H mutant; [LY367385] 0.3 µM): 0.2897; Δratio of 3 µM Pd(bpy)-induced response, ave (mGlu1 P58H/N264H mutant; [LY367385] 1 µM): 0.262; Δratio of 10 µM glutamate-induced response, ave (mGlu1 P58H/N264H mutant; [LY367385] 1 µM): 0.3662; Δratio of 3 µM Pd(bpy)-induced response, ave (mGlu1 P58H/N264H mutant; [LY367385] 3 µM): 0.1837; Δratio of 10 µM glutamate-induced response, ave (mGlu1 P58H/N264H mutant; [LY367385] 3 µM): 0.2021; Δratio of 3 µM Pd(bpy)-induced response, ave (mGlu1 P58H/N264H mutant; [LY367385] 10 µM): 0.007225; Δratio of 10 µM glutamate-induced response, ave (mGlu1 P58H/N264H mutant; [LY367385] 10 µM): 0.09778; Δratio of 3 µM Pd(bpy)-induced response, ave (mGlu1 P58H/N264H mutant; [LY367385] 30 µM): 0.008008; Δratio of 10 µM glutamate-induced response, ave (mGlu1 P58H/N264H mutant; [LY367385] 30 µM): 0.0409; Δratio of 3 µM Pd(bpy)-induced response, ave (mGlu1 P58H/N264H mutant; [LY367385] 100 µM): 0.01163; Δratio of 10 µM glutamate-induced response, ave (mGlu1 P58H/N264H mutant; [LY367385] 100 µM): 0.05699; Effect on glutamate-induced Ca2+ responses (mGlu1 P58H/N264H mutant; pretreatment with LY367385, 10 µM glutamate): suppressed; Effect of inhibitor on 30 µM Pd(bpy)-induced [Ca2+]i elevation (primary cortical neurons): suppressed by neither
–	[Ni+2] [Ni^2+, reference compound]	failed to activate	failed to activate	failed to activate	failed to activate	failed to activate	–	–	–
–	OCCOCCOCc1ccnc(-c2cc(COCCOCCO)ccn2)c1.[Cl][Pd][Cl] [Pd(EG-bpy)]	–	–	–	–	–	weakened responses	-0.02498 and -0.009 and -0.01094 and -0.001385 and -0.02155 and -0.01075 and -0.019 and 0.05131 and 0.02474 and 0.01748 and 0.01646 and -0.03188 and 0.7968 and -0.03567 and 0.2621	–
–	OCc1ccnc(-c2cc(CO)ccn2)c1.[Cl][Pd][Cl] [Pd(OH-bpy)]	–	–	–	–	–	successfully activated	0.09363 and -0.01751 and 0.927 and 0.3494 and 0.8377 and 0.7197 and 0.003631 and 0.04434 and -0.01218 and -0.01678 and 1.414 and 0.5875 and -0.01008 and 0.646 and 0.8168 and 0.6391 and 0.4133 and 1.082 and 0.03592 and 1.1834	Ca2+ response, concentration dependence (Fig.4f) (mGlu1(N264H) mutant; 0.01 µM Pd complex): -0.02066; Ca2+ response, concentration dependence (Fig.4f) (mGlu1(N264H) mutant; 0.03 µM Pd complex): 0.003658; Ca2+ response, concentration dependence (Fig.4f) (mGlu1(N264H) mutant; 0.1 µM Pd complex): 0.0176; Ca2+ response, concentration dependence (Fig.4f) (mGlu1(N264H) mutant; 0.3 µM Pd complex): 0.1704; Ca2+ response, concentration dependence (Fig.4f) (mGlu1(N264H) mutant; 1 µM Pd complex): 0.2068; Ca2+ response, concentration dependence (Fig.4f) (mGlu1(N264H) mutant; 3 µM Pd complex): 0.4989; Ca2+ response, concentration dependence (Fig.4f) (mGlu1(N264H) mutant; 10 µM Pd complex): 0.5148; Ca2+ response, concentration dependence (Fig.4f) (mGlu1(N264H) mutant; 30 µM Pd complex): 0.5694; pEC50 (mGlu1(N264H) mutant; HEK293 cells, Fura-2, read-out: EC50, Ca2+ response (Δratio)): 5.96
–	O=S(=O)([O-])CCCOCc1ccnc(-c2cc(COCCCS(=O)(=O)[O-])ccn2)c1.[Cl][Pd][Cl].[Na+].[Na+] [Pd(di-sulfo-bpy)]	–	–	–	–	–	failed to activate	0.01072 and 0.008046 and 0.01006 and 0.04502 and 0.003731 and 0.0195 and 0.007615 and 0.1169 and -0.002485 and 0.009585 and 0.3142 and 0.02231 and 0.005731 and 0.02578 and 0.01671	–
suppressed	C=C1C(=O)NC(C)C(=O)N(C)C(C)C(=O)NC(C(OC(=O)C(NC(C)=O)C(O)C(C)C)C(C)C)C(=O)N(C)C(C(C)OC)C(=O)OC(C)C(NC(C)=O)C(=O)OC(Cc2ccccc2)C(=O)N1C (centres unmarked) [YM-254890, reference compound] (Ac-T[PhLac][NMeDha]A[NMeA][X1][NMeT](Me); ester 1-C; configuration not given here)	–	–	–	–	–	–	–	–
–	[Zn+2] [Zn^2+, reference compound]	failed to activate	failed to activate	failed to activate	failed to activate	failed to activate	–	–	–

Compound	Effect of pre-treated inhibitor on 10 µM Pd(bpy)-induced Ca2+ responses (mGlu1(N264H) mutant)	Receptor activation ([Ca2+]i change, Δratio) (mGlu1 P58H/N264H mutant)	Receptor activation ([Ca2+]i change, Δratio) (mGlu1 A59H/N264H mutant)	Receptor activation ([Ca2+]i change, Δratio) (mGlu1 K61H/N264H mutant)	Receptor activation ([Ca2+]i change, Δratio) (mGlu1 P57H/N264H mutant)	Receptor activation ([Ca2+]i change, Δratio) (mGlu1 E60H/N264H mutant)	Receptor activation (Ca2+ response, Δratio) (mGlu1(N264H) mutant)	Ca2+ response to Pd complex, individual cells #1-#20 (Fig.4e) (mGlu1(N264H) mutant)	other results
COc1ccc2c(c1)CC[C@@H]1[C@@H]2CC[C@]2(C)[C@@H](NCCCCCCN3C(=O)C=CC3=O)CC[C@@H]12 [U73122, reference compound]	suppressed	–	–	–	–	–	–	–	Effect of inhibitor on 30 µM Pd(bpy)-induced [Ca2+]i elevation (primary cortical neurons): suppressed by neither

Source: article PMC9203742 (Nature Communications, 2022)
